Results as given in ChEMBL document CHEMBL3112450, “Synthesis and in vitro antitumor evaluation of primary amine substituted quinazoline linked benzimidazole” (Bioorg Med Chem Lett, 2014).

tested on: LOX IMVI; assay: Cytotoxicity against human LOXIMVI cells assessed as cell growth at 10^-5 M after 48 hrs by SRB assay; format: functional; conditions: read-out: Activity

SMILES | growth at 10 µM [%]
C=CCn1c(C)nc2cc(Nc3nc(NCCO)nc4ccccc34)ccc21 | 85.6

tested on: BT-549; assay: Cytotoxicity against human BT549 cells assessed as cell growth at 10^-5 M after 48 hrs by SRB assay; format: functional; conditions: BT-549, 48 h, read-out: Activity

SMILES | growth at 10 µM [%]
C=CCn1c(C)nc2cc(Nc3nc(NCCO)nc4ccccc34)ccc21 | 92.5

tested on: not listed separately; assay: Cytotoxicity against human Hs578T cells assessed as cell growth at 10^-5 M after 48 hrs by SRB assay; format: functional; conditions: Hs-578T, read-out: Activity

SMILES | growth at 10 µM [%]
C=CCn1c(C)nc2cc(Nc3nc(NCCO)nc4ccccc34)ccc21 | 77.5

tested on: SN12C; assay: Cytotoxicity against human SN12C cells assessed as cell growth at 10^-5 M after 48 hrs by SRB assay; format: functional; conditions: read-out: Activity

SMILES | growth at 10 µM [%]
C=CCn1c(C)nc2cc(Nc3nc(NCCO)nc4ccccc34)ccc21 | 84.7

tested on: OVCAR-3; assay: Cytotoxicity against human OVCAR3 cells assessed as cell growth at 10^-5 M after 48 hrs by SRB assay; format: functional; conditions: OVCAR-3, 48 h, read-out: Activity

SMILES | growth at 10 µM [%]
C=CCn1c(C)nc2cc(Nc3nc(NCCO)nc4ccccc34)ccc21 | 94.8

tested on: RXF 393; assay: Cytotoxicity against human RXF393 cells assessed as cell growth at 10^-5 M after 48 hrs by SRB assay; format: functional; conditions: RXF 393, 48 h, read-out: Activity

SMILES | growth at 10 µM [%]
C=CCn1c(C)nc2cc(Nc3nc(NCCO)nc4ccccc34)ccc21 | 97.5

tested on: SK-MEL-5; assay: Cytotoxicity against human SK-MEL-5 cells assessed as cell growth at 10^-5 M after 48 hrs by SRB assay; format: functional; conditions: SK-MEL-5, 48 h, read-out: Activity

SMILES | growth at 10 µM [%]
C=CCn1c(C)nc2cc(Nc3nc(NCCO)nc4ccccc34)ccc21 | 75.4

tested on: SNB-75; assay: Cytotoxicity against human SNB75 cells assessed as cell growth at 10^-5 M after 48 hrs by SRB assay; format: functional; conditions: SNB-75, 48 h, read-out: Activity

SMILES | growth at 10 µM [%]
C=CCn1c(C)nc2cc(Nc3nc(NCCO)nc4ccccc34)ccc21 | 76.4

tested on: DU-145; assay: Cytotoxicity against human DU145 cells assessed as cell growth at 10^-5 M after 48 hrs by SRB assay; format: functional; conditions: DU-145, 48 h, read-out: Activity

SMILES | growth at 10 µM [%]
C=CCn1c(C)nc2cc(Nc3nc(NCCO)nc4ccccc34)ccc21 | 98.8

tested on: NCI-H322M; assay: Cytotoxicity against human NCI-H322M cells assessed as cell growth at 10^-5 M after 48 hrs by SRB assay; format: functional; conditions: read-out: Activity

SMILES | growth at 10 µM [%]
C=CCn1c(C)nc2cc(Nc3nc(NCCO)nc4ccccc34)ccc21 | 91.3

tested on: A498; assay: Cytotoxicity against human A498 cells assessed as cell growth at 10^-5 M after 48 hrs by SRB assay; format: functional; conditions: A498, 48 h, read-out: Activity

SMILES | growth at 10 µM [%]
C=CCn1c(C)nc2cc(Nc3nc(NCCO)nc4ccccc34)ccc21 | 55.4

tested on: ACHN; assay: Cytotoxicity against human ACHN cells assessed as cell growth at 10^-5 M after 48 hrs by SRB assay; format: functional; conditions: read-out: Activity

SMILES | growth at 10 µM [%]
C=CCn1c(C)nc2cc(Nc3nc(NCCO)nc4ccccc34)ccc21 | 90.5

tested on: SK-OV-3; assay: Cytotoxicity against human SKOV3 cells assessed as cell growth at 10^-5 M after 48 hrs by SRB assay; format: functional; conditions: SK-OV-3, 48 h, read-out: Activity

SMILES | growth at 10 µM [%]
C=CCn1c(C)nc2cc(Nc3nc(NCCO)nc4ccccc34)ccc21 | 103

tested on: SW-620; assay: Cytotoxicity against human SW620 cells assessed as cell growth at 10^-5 M after 48 hrs by SRB assay; format: functional; conditions: SW-620, 48 h, read-out: Activity

SMILES | growth at 10 µM [%]
C=CCn1c(C)nc2cc(Nc3nc(NCCO)nc4ccccc34)ccc21 | 68.2

tested on: SR; assay: Cytotoxicity against human SR cells assessed as cell growth at 10^-5 M after 48 hrs by SRB assay; format: functional; conditions: read-out: Activity

SMILES | growth at 10 µM [%]
C=CCn1c(C)nc2cc(Nc3nc(NCCO)nc4ccccc34)ccc21 | 68.8

tested on: TK-10; assay: Cytotoxicity against human TK10 cells assessed as cell growth at 10^-5 M after 48 hrs by SRB assay; format: functional; conditions: TK-10, 48 h, read-out: Activity

SMILES | growth at 10 µM [%]
C=CCn1c(C)nc2cc(Nc3nc(NCCO)nc4ccccc34)ccc21 | 118

tested on: RPMI-8226; assay: Cytotoxicity against human RPMI8226 cells assessed as cell growth at 10^-5 M after 48 hrs by SRB assay; format: functional; conditions: RPMI-8226, 48 h, read-out: Activity

SMILES | growth at 10 µM [%]
C=CCn1c(C)nc2cc(Nc3nc(NCCO)nc4ccccc34)ccc21 | 63.4

tested on: HT-29; assay: Cytotoxicity against human HT-29 cells assessed as cell growth at 10^-5 M after 48 hrs by SRB assay; format: functional; conditions: HT-29, 48 h, read-out: Activity

SMILES | growth at 10 µM [%]
C=CCn1c(C)nc2cc(Nc3nc(NCCO)nc4ccccc34)ccc21 | 64.5

tested on: SK-MEL-2; assay: Cytotoxicity against human SK-MEL-2 cells assessed as cell growth at 10^-5 M after 48 hrs by SRB assay; format: functional; conditions: SK-MEL-2, 48 h, read-out: Activity

SMILES | growth at 10 µM [%]
C=CCn1c(C)nc2cc(Nc3nc(NCCO)nc4ccccc34)ccc21 | 102

tested on: HOP-92; assay: Cytotoxicity against human HOP92 cells assessed as cell growth at 10^-5 M after 48 hrs by SRB assay; format: functional; conditions: HOP-92, 48 h, read-out: Activity

SMILES | growth at 10 µM [%]
C=CCn1c(C)nc2cc(Nc3nc(NCCO)nc4ccccc34)ccc21 | 57.9

tested on: 786-0; assay: Cytotoxicity against human 786-0 cells assessed as cell growth at 10^-5 M after 48 hrs by SRB assay; format: functional; conditions: 786-0, 48 h, read-out: Activity

SMILES | growth at 10 µM [%]
C=CCn1c(C)nc2cc(Nc3nc(NCCO)nc4ccccc34)ccc21 | 89.1

tested on: NCI-H23; assay: Cytotoxicity against human NCI-H23 cells assessed as cell growth at 10^-5 M after 48 hrs by SRB assay; format: functional; conditions: NCI-H23, 48 h, read-out: Activity

SMILES | growth at 10 µM [%]
C=CCn1c(C)nc2cc(Nc3nc(NCCO)nc4ccccc34)ccc21 | 81.9

tested on: K562; assay: Cytotoxicity against human K562 cells assessed as cell growth at 10^-5 M after 48 hrs by SRB assay; format: functional; conditions: K562, 48 h, read-out: Activity

SMILES | growth at 10 µM [%]
C=CCn1c(C)nc2cc(Nc3nc(NCCO)nc4ccccc34)ccc21 | 64.1

tested on: OVCAR-8; assay: Cytotoxicity against human OVCAR8 cells assessed as cell growth at 10^-5 M after 48 hrs by SRB assay; format: functional; conditions: OVCAR-8, 48 h, read-out: Activity

SMILES | growth at 10 µM [%]
C=CCn1c(C)nc2cc(Nc3nc(NCCO)nc4ccccc34)ccc21 | 73.6

tested on: not listed separately; assay: Cytotoxicity against human OVCAR4 cells assessed as cell growth at 10^-5 M after 48 hrs by SRB assay; format: functional; conditions: OVCAR-4, 48 h, read-out: Activity

SMILES | growth at 10 µM [%]
C=CCn1c(C)nc2cc(Nc3nc(NCCO)nc4ccccc34)ccc21 | 65.2

tested on: CCRF-CEM; assay: Cytotoxicity against human CCRF-CEM cells assessed as cell growth at 10^-5 M after 48 hrs by SRB assay; format: functional; conditions: read-out: Activity

SMILES | growth at 10 µM [%]
C=CCn1c(C)nc2cc(Nc3nc(NCCO)nc4ccccc34)ccc21 | 81.9

tested on: T47D; assay: Cytotoxicity against human T47D cells assessed as cell growth at 10^-5 M after 48 hrs by SRB assay; format: functional; conditions: read-out: Activity

SMILES | growth at 10 µM [%]
C=CCn1c(C)nc2cc(Nc3nc(NCCO)nc4ccccc34)ccc21 | 69

tested on: SK-MEL-28; assay: Cytotoxicity against human SK-MEL-28 cells assessed as cell growth at 10^-5 M after 48 hrs by SRB assay; format: functional; conditions: SK-MEL-28, 48 h, read-out: Activity

SMILES | growth at 10 µM [%]
C=CCn1c(C)nc2cc(Nc3nc(NCCO)nc4ccccc34)ccc21 | 101

tested on: COLO 205; assay: Cytotoxicity against human COLO205 cells assessed as cell growth at 10^-5 M after 48 hrs by SRB assay; format: functional; conditions: COLO 205, 48 h, read-out: Activity

SMILES | growth at 10 µM [%]
C=CCn1c(C)nc2cc(Nc3nc(NCCO)nc4ccccc34)ccc21 | 41.9

tested on: PC-3; assay: Cytotoxicity against human PC3 cells assessed as cell growth at 10^-5 M after 48 hrs by SRB assay; format: functional; conditions: PC-3, 48 h, read-out: Activity

SMILES | growth at 10 µM [%]
C=CCn1c(C)nc2cc(Nc3nc(NCCO)nc4ccccc34)ccc21 | 69.2

tested on: SF-268; assay: Cytotoxicity against human SF268 cells assessed as cell growth at 10^-5 M after 48 hrs by SRB assay; format: functional; conditions: SF-268, 48 h, read-out: Activity

SMILES | growth at 10 µM [%]
C=CCn1c(C)nc2cc(Nc3nc(NCCO)nc4ccccc34)ccc21 | 90.9

tested on: Malme-3M; assay: Cytotoxicity against human MALME-3M cells assessed as cell growth at 10^-5 M after 48 hrs by SRB assay; format: functional; conditions: read-out: Activity

SMILES | growth at 10 µM [%]
C=CCn1c(C)nc2cc(Nc3nc(NCCO)nc4ccccc34)ccc21 | 98.6

tested on: HCT-15; assay: Cytotoxicity against human HCT15 cells assessed as cell growth at 10^-5 M after 48 hrs by SRB assay; format: functional; conditions: HCT-15, 48 h, read-out: Activity

SMILES | growth at 10 µM [%]
C=CCn1c(C)nc2cc(Nc3nc(NCCO)nc4ccccc34)ccc21 | 105

tested on: CAKI-1; assay: Cytotoxicity against human Caki1 cells assessed as cell growth at 10^-5 M after 48 hrs by SRB assay; format: functional; conditions: CAKI-1, 48 h, read-out: Activity

SMILES | growth at 10 µM [%]
C=CCn1c(C)nc2cc(Nc3nc(NCCO)nc4ccccc34)ccc21 | 93

tested on: HL-60(TB); assay: Cytotoxicity against human HL-60(TB) cells assessed as cell growth at 10^-5 M after 48 hrs by SRB assay; format: functional; conditions: HL-60, 48 h, read-out: Activity

SMILES | growth at 10 µM [%]
C=CCn1c(C)nc2cc(Nc3nc(NCCO)nc4ccccc34)ccc21 | 93.8

tested on: SF-539; assay: Cytotoxicity against human SF539 cells assessed as cell growth at 10^-5 M after 48 hrs by SRB assay; format: functional; conditions: SF-539, 48 h, read-out: Activity

SMILES | growth at 10 µM [%]
C=CCn1c(C)nc2cc(Nc3nc(NCCO)nc4ccccc34)ccc21 | 94.8

tested on: A549; assay: Cytotoxicity against human A549 cells assessed as cell growth at 10^-5 M after 48 hrs by SRB assay; format: functional; conditions: A549, 48 h, read-out: Activity

SMILES | growth at 10 µM [%]
C=CCn1c(C)nc2cc(Nc3nc(NCCO)nc4ccccc34)ccc21 | 92.3

tested on: HOP-62; assay: Cytotoxicity against human HOP62 cells assessed as cell growth at 10^-5 M after 48 hrs by SRB assay; format: functional; conditions: HOP-62, 48 h, read-out: Activity

SMILES | growth at 10 µM [%]
C=CCn1c(C)nc2cc(Nc3nc(NCCO)nc4ccccc34)ccc21 | 83.3
